{
  "source": "ChEMBL document CHEMBL5465560",
  "about": "“Selectivity Literature for EUbOPEN Chemogenomic Library” (2024)",
  "key": {"[1]": {"molecular_target": "Ribosomal protein S6 kinase alpha-2 (Homo sapiens) (UniProt Q15349)", "sequence (Q15349 whole entry)": "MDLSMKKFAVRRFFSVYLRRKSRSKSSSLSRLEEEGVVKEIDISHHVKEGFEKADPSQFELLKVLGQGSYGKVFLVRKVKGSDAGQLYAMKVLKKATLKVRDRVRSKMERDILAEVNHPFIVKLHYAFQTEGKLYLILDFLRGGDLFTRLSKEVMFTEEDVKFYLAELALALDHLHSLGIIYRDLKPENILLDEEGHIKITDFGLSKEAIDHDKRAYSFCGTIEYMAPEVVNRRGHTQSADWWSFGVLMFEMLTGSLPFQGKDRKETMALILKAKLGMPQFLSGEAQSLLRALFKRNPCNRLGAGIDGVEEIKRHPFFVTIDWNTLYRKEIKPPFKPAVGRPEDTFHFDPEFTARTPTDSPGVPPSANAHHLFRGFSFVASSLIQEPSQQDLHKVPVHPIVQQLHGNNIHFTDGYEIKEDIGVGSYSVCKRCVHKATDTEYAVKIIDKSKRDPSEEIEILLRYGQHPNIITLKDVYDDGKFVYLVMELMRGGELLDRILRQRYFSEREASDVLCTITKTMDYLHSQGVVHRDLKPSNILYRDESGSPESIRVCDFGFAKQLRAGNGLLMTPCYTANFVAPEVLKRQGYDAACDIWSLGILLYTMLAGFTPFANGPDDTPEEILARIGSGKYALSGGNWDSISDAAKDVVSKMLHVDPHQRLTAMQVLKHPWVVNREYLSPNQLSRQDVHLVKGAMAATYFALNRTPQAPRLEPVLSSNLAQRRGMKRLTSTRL", "experiment": "Selectivity interaction (SelectScreen profiling (Invitrogen)) EUB0000607a RPS6KA2", "settings": "at 2 µM"}, "[2]": {"molecular_target": "T1, cAMP-dependent protein kinase catalytic subunit PRKX (Homo sapiens) (UniProt P51817)", "T1 sequence (whole entry)": "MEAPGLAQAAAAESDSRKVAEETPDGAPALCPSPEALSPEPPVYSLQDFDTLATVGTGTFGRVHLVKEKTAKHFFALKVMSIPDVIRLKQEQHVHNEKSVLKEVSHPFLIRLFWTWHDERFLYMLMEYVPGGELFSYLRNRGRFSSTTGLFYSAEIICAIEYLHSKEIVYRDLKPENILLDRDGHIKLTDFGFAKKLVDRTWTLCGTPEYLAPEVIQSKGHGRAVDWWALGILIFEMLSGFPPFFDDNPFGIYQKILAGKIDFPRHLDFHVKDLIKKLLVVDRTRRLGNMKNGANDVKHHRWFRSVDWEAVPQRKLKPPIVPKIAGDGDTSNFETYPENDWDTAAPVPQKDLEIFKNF", "experiment": "Selectivity interaction (ProQinase) EUB0000171b PRKX"}, "[3]": {"molecular_target": "cGMP-inhibited 3',5'-cyclic phosphodiesterase 3A (Homo sapiens, UniProt Q14432)", "experiment": "Selectivity interaction (Panel of non-epigenetic targets (kinases, GPCRs, ion channels, and transporters, Eurofins) ) EUB0000271b PDE3A", "settings": "at 1 µM"}, "[4]": {"system": "Tyrosine-protein kinase ABL1 (Homo sapiens), P00519 [T315I]", "experiment": "Selectivity interaction (KinomeScan (DiscoverX)) EUB0000655a ABL1", "settings": "at 10 µM"}, "[5]": {"molecular_target": "Insulin receptor-related protein (Homo sapiens) (UniProt P14616)", "sequence (P14616 27-742 limits assumed)": "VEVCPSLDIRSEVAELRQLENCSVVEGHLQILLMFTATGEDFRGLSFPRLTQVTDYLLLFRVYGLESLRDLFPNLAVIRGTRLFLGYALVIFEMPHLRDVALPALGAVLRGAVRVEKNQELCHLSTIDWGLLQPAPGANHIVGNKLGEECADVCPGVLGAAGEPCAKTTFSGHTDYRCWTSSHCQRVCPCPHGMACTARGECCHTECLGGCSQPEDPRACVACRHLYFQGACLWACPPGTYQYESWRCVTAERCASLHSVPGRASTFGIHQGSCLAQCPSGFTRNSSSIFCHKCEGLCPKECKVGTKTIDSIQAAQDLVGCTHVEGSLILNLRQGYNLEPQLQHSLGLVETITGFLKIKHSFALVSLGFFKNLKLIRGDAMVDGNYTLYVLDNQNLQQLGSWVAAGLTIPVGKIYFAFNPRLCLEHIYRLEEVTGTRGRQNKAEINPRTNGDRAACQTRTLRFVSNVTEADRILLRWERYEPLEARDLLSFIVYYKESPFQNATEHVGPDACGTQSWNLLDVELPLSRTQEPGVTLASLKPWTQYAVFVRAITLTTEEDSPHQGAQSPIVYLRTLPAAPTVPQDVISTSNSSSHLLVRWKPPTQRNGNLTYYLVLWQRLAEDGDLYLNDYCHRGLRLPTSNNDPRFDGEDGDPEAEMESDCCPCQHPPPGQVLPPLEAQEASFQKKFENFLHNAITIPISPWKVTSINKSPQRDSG", "sequence (P14616 747-1297 limits assumed)": "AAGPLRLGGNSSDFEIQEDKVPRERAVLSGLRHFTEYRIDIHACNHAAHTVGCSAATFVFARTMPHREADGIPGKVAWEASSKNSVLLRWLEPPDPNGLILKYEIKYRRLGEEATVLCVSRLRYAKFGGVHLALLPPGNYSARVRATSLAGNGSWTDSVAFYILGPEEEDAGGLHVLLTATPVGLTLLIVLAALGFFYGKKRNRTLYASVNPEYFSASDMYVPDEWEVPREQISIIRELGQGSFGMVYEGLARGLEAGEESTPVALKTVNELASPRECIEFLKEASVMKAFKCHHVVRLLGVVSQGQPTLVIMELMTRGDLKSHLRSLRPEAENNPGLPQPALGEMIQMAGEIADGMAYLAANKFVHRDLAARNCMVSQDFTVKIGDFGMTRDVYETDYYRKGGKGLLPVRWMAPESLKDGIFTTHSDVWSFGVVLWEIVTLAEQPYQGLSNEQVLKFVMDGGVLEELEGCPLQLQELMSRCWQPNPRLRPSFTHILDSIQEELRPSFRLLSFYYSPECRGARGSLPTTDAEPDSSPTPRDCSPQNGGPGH", "experiment": "Selectivity interaction (KinomeScan (DiscoverX)) EUB0000655a INSRR", "settings": "at 10 µM"}, "[6]": {"molecular_target": "Ephrin type-A receptor 2 (Homo sapiens) (UniProt P29317)", "experiment": "Selectivity interaction (KinomeScan (DiscoverX)) EUB0000229b EPHA2", "settings": "at 10 µM"}, "[7]": {"molecular_target": "Ephrin type-A receptor 5 (Homo sapiens) (UniProt P54756)", "sequence (P54756 whole entry)": "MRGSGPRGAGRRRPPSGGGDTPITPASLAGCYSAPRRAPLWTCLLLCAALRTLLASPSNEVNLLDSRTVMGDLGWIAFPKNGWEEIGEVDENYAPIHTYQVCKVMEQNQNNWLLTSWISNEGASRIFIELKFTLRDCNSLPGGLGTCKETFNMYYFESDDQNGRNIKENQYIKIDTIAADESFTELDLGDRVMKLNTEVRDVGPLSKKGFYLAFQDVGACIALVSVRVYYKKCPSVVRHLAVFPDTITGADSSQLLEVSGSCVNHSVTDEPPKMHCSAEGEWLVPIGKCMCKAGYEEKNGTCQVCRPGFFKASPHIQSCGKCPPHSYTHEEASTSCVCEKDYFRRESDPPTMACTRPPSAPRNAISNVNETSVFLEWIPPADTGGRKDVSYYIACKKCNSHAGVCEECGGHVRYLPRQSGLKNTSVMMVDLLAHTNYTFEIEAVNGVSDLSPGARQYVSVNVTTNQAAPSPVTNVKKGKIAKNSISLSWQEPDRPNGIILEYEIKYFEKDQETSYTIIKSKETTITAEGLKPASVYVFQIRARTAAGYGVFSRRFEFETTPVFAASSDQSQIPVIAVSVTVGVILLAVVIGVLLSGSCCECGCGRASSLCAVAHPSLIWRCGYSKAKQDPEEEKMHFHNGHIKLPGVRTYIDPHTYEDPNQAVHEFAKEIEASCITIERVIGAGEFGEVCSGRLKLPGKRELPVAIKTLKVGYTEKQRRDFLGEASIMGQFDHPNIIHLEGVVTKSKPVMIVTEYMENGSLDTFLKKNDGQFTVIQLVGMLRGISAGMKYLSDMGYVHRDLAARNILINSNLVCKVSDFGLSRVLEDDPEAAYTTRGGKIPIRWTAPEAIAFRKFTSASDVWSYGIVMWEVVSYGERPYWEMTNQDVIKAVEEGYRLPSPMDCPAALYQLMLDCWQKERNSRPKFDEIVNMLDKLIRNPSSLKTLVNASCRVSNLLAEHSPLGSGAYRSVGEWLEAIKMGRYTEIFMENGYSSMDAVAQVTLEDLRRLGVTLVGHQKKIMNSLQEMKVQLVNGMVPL", "experiment": "Selectivity interaction (KinomeScan (DiscoverX)) EUB0000229b EPHA5", "settings": "at 10 µM"}, "[8]": {"molecular_target": "Glycogen synthase kinase-3 beta (Homo sapiens, UniProt P49841)", "sequence (P49841 whole entry, looked up)": "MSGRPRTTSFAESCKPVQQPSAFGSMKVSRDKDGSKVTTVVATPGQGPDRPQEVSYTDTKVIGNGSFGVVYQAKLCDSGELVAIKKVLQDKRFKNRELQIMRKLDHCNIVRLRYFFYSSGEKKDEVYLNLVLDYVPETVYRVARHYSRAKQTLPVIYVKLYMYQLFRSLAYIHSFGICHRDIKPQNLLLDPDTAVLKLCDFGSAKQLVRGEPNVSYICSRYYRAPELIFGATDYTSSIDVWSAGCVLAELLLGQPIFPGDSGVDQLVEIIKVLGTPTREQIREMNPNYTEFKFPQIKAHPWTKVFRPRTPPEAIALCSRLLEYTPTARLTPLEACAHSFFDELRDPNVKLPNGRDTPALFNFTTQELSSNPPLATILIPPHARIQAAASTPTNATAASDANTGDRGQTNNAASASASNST", "settings": "at 10 µM"}, "[9]": {"molecular_target": "STE20/SPS1-related proline-alanine-rich protein kinase (Homo sapiens) (UniProt Q9UEW8)", "settings": "at 10 µM"}, "[10]": {"molecular_target": "Calcium/calmodulin-dependent protein kinase type II subunit delta (Homo sapiens) (UniProt Q13557)", "sequence (Q13557 whole entry)": "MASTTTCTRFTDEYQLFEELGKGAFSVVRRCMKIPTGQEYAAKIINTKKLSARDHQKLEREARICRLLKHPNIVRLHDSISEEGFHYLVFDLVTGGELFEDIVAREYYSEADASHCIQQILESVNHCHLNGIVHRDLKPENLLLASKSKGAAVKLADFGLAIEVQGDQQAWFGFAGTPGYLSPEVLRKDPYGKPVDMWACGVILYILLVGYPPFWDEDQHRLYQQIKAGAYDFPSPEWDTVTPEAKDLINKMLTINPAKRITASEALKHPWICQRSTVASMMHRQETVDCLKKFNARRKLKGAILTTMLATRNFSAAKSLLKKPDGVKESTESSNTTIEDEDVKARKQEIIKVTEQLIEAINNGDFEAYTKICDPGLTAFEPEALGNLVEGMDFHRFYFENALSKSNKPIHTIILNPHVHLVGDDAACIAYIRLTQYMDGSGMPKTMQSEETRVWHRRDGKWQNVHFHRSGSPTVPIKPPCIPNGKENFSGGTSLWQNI", "experiment": "Selectivity interaction (KinomeScan (DiscoverX)) EUB0000618a CAMK2D", "settings": "at 10 µM"}, "[11]": {"molecular_target": "Ribosomal protein S6 kinase alpha-5 (Homo sapiens) (UniProt O75582)", "sequence (O75582 whole entry, looked up)": "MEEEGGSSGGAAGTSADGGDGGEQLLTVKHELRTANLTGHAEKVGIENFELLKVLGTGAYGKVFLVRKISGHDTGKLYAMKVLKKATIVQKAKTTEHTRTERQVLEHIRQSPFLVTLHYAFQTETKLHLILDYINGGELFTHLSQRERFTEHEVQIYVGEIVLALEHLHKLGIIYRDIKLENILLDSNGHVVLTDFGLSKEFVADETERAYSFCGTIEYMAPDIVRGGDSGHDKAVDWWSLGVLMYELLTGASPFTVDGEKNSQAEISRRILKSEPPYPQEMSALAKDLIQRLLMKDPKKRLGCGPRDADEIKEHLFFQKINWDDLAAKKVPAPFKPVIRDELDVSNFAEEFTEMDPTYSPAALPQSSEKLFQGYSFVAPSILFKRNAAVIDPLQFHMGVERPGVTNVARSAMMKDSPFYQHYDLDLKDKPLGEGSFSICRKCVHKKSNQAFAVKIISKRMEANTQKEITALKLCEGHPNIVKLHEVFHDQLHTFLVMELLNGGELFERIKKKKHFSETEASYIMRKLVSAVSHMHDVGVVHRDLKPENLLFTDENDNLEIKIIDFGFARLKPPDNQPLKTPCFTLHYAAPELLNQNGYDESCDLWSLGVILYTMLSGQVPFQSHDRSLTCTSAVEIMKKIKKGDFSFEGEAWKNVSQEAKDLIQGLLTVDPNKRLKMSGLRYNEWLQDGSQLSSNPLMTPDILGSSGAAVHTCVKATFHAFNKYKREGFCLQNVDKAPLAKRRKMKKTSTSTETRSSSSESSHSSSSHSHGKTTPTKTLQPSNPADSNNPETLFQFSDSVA", "experiment": "Selectivity interaction (ActivX KiNativ screen (ex vivo kinase selectivity in human PBMCs)) EUB0001619a RPS6KA5", "type": "cell-based", "settings": "PBMC, at 1 µM"}, "[12]": {"molecular_target": "T2, Cyclin-dependent kinase 11A (Homo sapiens) (UniProt Q9UQ88)", "T2 sequence (whole entry)": "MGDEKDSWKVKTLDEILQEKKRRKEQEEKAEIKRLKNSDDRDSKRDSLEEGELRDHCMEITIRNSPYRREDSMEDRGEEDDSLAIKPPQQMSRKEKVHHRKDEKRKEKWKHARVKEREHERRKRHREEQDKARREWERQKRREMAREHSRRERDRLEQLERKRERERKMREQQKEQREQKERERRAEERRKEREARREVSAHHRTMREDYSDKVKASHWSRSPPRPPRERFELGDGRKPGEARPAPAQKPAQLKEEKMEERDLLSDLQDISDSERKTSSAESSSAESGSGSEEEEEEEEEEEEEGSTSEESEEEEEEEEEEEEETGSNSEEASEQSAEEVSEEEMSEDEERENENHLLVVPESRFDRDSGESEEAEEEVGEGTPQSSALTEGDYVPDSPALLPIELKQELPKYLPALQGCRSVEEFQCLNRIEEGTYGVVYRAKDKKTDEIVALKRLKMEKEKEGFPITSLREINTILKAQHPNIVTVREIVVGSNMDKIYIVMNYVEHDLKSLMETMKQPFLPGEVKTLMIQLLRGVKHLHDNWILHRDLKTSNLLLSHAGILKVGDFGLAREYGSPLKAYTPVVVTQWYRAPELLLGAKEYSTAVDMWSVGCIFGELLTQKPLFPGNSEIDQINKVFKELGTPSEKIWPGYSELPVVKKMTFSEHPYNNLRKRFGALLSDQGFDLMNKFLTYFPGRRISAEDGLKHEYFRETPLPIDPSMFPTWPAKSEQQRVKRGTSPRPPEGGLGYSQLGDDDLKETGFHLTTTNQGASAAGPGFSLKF", "experiment": "Selectivity interaction (KinomeScan (DiscoverX)) EUB0001619a CDK11A", "settings": "at 1 µM"}},
  "data": [
    {"compound": "CNC(=O)Nc1ccc(-c2nc(N3CC4CCC(C3)O4)c3cnn(C4CCC5(CC4)OCCO5)c3n2)cc1", "values": [
      {"measurement": "% of inhibition", "setting": "[1]", "result": -1, "unit": "%"}
    ]},
    {"compound": "C=CC(=O)Nc1cccc(C(=O)Nc2ccc(Nc3cc(-c4[nH]c(SC)nc4C)ccn3)cc2)c1", "values": [
      {"measurement": "% of control", "setting": "[2]; at 1 µM", "result": 86, "unit": "%"},
      {"measurement": "% of control", "setting": "[2]; at 5 µM", "result": 61, "unit": "%"}
    ]},
    {"compound": "Cc1cc(C)cc([C@@H]2c3cc(C)ccc3NC(=O)CN2C(=O)c2ccc(Br)s2)c1", "values": [
      {"measurement": "% of inhibition", "setting": "[3]", "result": -11, "unit": "%"}
    ]},
    {"compound": "CN(C)CCOc1ccc(-c2nc(-c3ccncc3)c(-c3ccc4c(c3)CC/C4=N\\O)[nH]2)cc1", "values": [
      {"measurement": "% of control", "setting": "[4]", "result": 5.4, "unit": "%"},
      {"measurement": "% of control", "setting": "[5]", "result": 100, "unit": "%"}
    ]},
    {"compound": "COc1cc(N(C)c2ccnc3ccc(C(F)(F)F)cc23)cc(OC)c1OC", "values": [
      {"measurement": "% binding", "setting": "[6]", "result": 88, "unit": "%"},
      {"measurement": "% binding", "setting": "[7]", "result": 97, "unit": "%"}
    ]},
    {"compound": "Cc1cc([C@@H](C)Nc2ccccc2C(=O)O)c2nc(N3CCOCC3)cc(=O)n2c1", "note": "[AZD-6482]", "values": [
      {"measurement": "% of control", "setting": "[8]", "result": 100, "unit": "%"},
      {"measurement": "% of control", "setting": "[9]", "result": 100, "unit": "%"}
    ]},
    {"compound": "O[C@H]1CC[C@H](Nc2ncc3nc(Nc4c(F)cc(F)cc4F)n([C@H]4CCOC4)c3n2)CC1", "values": [
      {"measurement": "% of control", "setting": "[10]", "result": 76, "unit": "%"}
    ]},
    {"compound": "N#Cc1cccc(-c2c[nH]c3ncnc(N4CCOCC4)c23)c1", "values": [
      {"measurement": "% of inhibition", "setting": "[11]", "result": -4, "unit": "%"},
      {"measurement": "% of control", "setting": "[12]", "result": 48, "unit": "%"}
    ]}
  ]
}
